Values of other authors, collected in US11169101B2, “Oligosaccharide compositions and methods of use thereof” (Kaleido Biosciences, Inc., priority 2018, dated 2021).

Conditions: administered in combination with lactulose

## CO[C@H]1/C=C/O[C@@]2(C)Oc3c(C)c(O)c4c(O)c(c5c(nc6cc(C)ccn65)c4c3C2=O)NC(=O)/C(C)=C\C=C\[C@H](C)[C@H](O)[C@@H](C)[C@@H](O)[C@@H](C)[C@H](OC(C)=O)[C@@H]1C [rifaximin]
  reduction of episodes of OHE: approximately 50%
